Assay results as given in patent publication US10227349B2, “Pyrazolo[1,5-a]pyrimidine compound” (Eisai R&D Management Co., Ltd., priority 2016, dated 2019).

Legend:
[1] = test system: mite antigen-induced dermatitis in NC/NgaTndCrlj mice; assay: Model for mite antigen-induced atopic dermatitis (dermatitis score); format: in vivo, mouse; design: key: sum of 5 findings, each 0 = none, 1 mild, 2 moderate, 3 severe
Method: A 4 w/v % SDS solution (0.15 mL/mouse) was first applied to the dorsal region and auricle region of 8-week old male NC/NgaTndCrlj mice (Charles River Laboratories Japan, Inc.) under isoflurane inhalation anesthesia. About 3 hours after the application of the 4 w/v % SDS solution (0.15 mL/mouse), a 1 mL-polypropylene disposable syringe (Terumo Corporation) was filled with Bio stir AD (Biostir Inc.) as a mite antigen ointment which was applied to the dorsal region and auricle region (0.1 mL/mouse). Every 2 or 3 days, the 4 w/v % SDS solution (0.15 mL/mouse) and Biostir AD were applied to a total of 8 times including the initial application by the same method to induce dermatitis. After inducing the dermatitis, the conditions of the skin at the application sites (assessments other than itching behavior) were observed and the dermatitis findings 1) to 5) described below were scored based on the evaluation criteria for the clinical symptoms of human atopic dermatitis. Note that the scoring of the dermatitis findings 1) to 5) has 0 for no symptom, 1 for mild, 2 for moderate and 3 for severe. The dermatitis score of each individual is the total of the dermatitis findings 1) to 5). Grouping (15 mice per group) was carried out randomly so that each group had substantially the same (no statistically significant difference) average dermatitis score (total) and average body weight. For 14 days from the day on which the grouping was carried out, an administration solution containing the test compound (10 mL/kg) was orally administered to the mouse once a day (14 times in total). The administration solution was a 0.5% carboxymethyl cellulose solution containing 10 mmol/L sodium hydroxide and made up into three types of solution having test compound concentrations of 0.3, 1 or 3 mg/mL.

[2] = target: T1, PAR2 (Mus musculus, UniProt P55086); assay: Measurement of PAR2 agonist (SLIGRL-NH2)-induced salivation in mouse; format: in vivo; conditions: C57BL/6J male mice, 0.3 mg/mL solution 10 mL/kg orally, 60 min before SLIGRL-NH2 i.p., saliva collected 10 min
T1 construct: orally administered to C57BL/6J male mice (Charles River), 6-10 weeks of age; tissue Charles River; host or cells: Living C57BL/6J male mice (in vivo; saliva secretion)
T1 sequence (P55086 26-399): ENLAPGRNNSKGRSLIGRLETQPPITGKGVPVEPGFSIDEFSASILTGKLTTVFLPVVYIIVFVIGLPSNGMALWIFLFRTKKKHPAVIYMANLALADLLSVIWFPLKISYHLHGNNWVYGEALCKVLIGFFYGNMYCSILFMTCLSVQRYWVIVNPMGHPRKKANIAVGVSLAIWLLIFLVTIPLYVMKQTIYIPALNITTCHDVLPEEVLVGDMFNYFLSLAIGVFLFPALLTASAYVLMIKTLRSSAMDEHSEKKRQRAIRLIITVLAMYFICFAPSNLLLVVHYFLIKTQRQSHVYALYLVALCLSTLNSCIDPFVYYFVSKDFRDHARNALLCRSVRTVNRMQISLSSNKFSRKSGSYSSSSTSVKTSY
Method: The test compound was added to a 0.5% carboxymethyl cellulose solution to which 2% DMSO was added, so as to have the final concentration of 0.3 mg/mL, thereby preparing an administration solution containing the test compound. The administration solution containing the test compound (10 mL/kg) was orally administered to C57BL/6J male mice (Charles River), 6-10 weeks of age, using an oral sonde and a syringe. Forty-five minutes after the administration of the test compound, 10 mL/kg of a 20% (w/v) urethane solution was intraperitoneal administered to the mice which were then anesthetized. Sixty minutes after the administration of the test compound, 10 mL/kg of a 0.1 mg/mL SLIGRL-NH2 (SEQ ID NO: 2) solution was intraperitoneally administered as the PAR2 agonist and a cotton ball was immediately placed in the oral cavity of the mouse to collect the saliva. Ten minutes after the administration of the PAR2 agonist, the cotton ball was removed and weighed to measure the amount of saliva secreted.
Note that Reference Example 1 in Table 4 is Compound (XIX). Additionally, Comparative Compound in Table 4 is Compound (XX).

[3] = test system: OXA-induced enteritis in BALB/c male mice; assay: Model mouse for enteritis (OXA-induced, bowel length); format: in vivo; conditions: po, 48 h, 0.1 mg/mL solution 10 mL/kg orally twice (1 hour before and day after OXA induction), length of colon and rectum two days after induction, read-out: Inhibitory activity on bowel shortening (%)
Method: Generally, the bowel length is known to be shorter during enteritis (Maxwell, J. R. et al. Curr. Protoc. Pharmacol. Chapter 5: Unit 5.58, 2009). The bowel length in an enteritis model was measured to evaluate the effect of the test compound.
The test compound was added to a 0.5% carboxymethyl cellulose solution so as to have a final concentration of 0.1 mg/mL, thereby preparing an administration solution containing the test compound. Hapten used was 4-ethoxymethylene-2-phenyloxazol-5-one (OXA, SIGMA-ALDRICH).
One hundred (100) μL of a solution of OXA diluted to 0.3% with ethanol was applied to the shaved abdominal region of BALB/c male mice (Charles River), 6-10 weeks of age, to create the sensitization. Five days after the sensitization, OXA was intrarectally administered to induce an enteritis reaction. More specifically, a syringe equipped with a sonde for oral administration was inserted into the anus of the mouse anesthetized by the inhalation of isoflurane at a concentration of 4-5% and 50 μL of the OXA solution adjusted to 1% with a solvent of 50% ethanol/50% distilled water was administered into the rectum.
One hour before and on the day following the induction of enteritis, the administration solution containing the test compound (10 mL/kg) was orally administered twice in total to the mice. Two days after the induction of enteritis, the mice were euthanized by cervical dislocation and subsequently the cecum to the anus was collected to measure the combined length of the colon and the rectum using a ruler, thereby evaluating the action of the test compound.
Note that Reference Example 1 in Table 6 is Compound (XIX).

Inhibitory activity on the PAR2-dependent saliva secretion (%) [2]	SMILES	Dermatitis score (total of findings 1 to 5) ([1]; 3 mg/kg orally once a day, 4 days after starting administration)	Dermatitis score (total of findings 1 to 5) ([1]; 3 mg/kg orally once a day, 7 days after starting administration)	Dermatitis score (total of findings 1 to 5) ([1]; 3 mg/kg orally once a day, 11 days after starting administration)	Dermatitis score (total of findings 1 to 5) ([1]; 3 mg/kg orally once a day, 14 days after starting administration)	Dermatitis score (total of findings 1 to 5) ([1]; 3 mg/kg orally once a day, day 0 (day of grouping))	Dermatitis score (total of findings 1 to 5) ([1]; 10 mg/kg orally once a day, 4 days after starting administration)	Dermatitis score (total of findings 1 to 5) ([1]; 10 mg/kg orally once a day, 7 days after starting administration)	Dermatitis score (total of findings 1 to 5) ([1]; 10 mg/kg orally once a day, 11 days after starting administration)	Dermatitis score (total of findings 1 to 5) ([1]; 10 mg/kg orally once a day, 14 days after starting administration)	Dermatitis score (total of findings 1 to 5) ([1]; 10 mg/kg orally once a day, day 0 (day of grouping))	Dermatitis score (total of findings 1 to 5) ([1]; 30 mg/kg orally once a day, 4 days after starting administration)	Dermatitis score (total of findings 1 to 5) ([1]; 30 mg/kg orally once a day, 7 days after starting administration)	Dermatitis score (total of findings 1 to 5) ([1]; 30 mg/kg orally once a day, 11 days after starting administration)	Dermatitis score (total of findings 1 to 5) ([1]; 30 mg/kg orally once a day, 14 days after starting administration)	Dermatitis score (total of findings 1 to 5) ([1]; 30 mg/kg orally once a day, day 0 (day of grouping))	inhibition in vivo at 100 µg/mL, 1 mg/kg [3]
92.2%	CO[C@H]1CN(C(=O)c2cc3nc(-c4cc(F)c(Cl)c(F)c4)cc(N(C)c4c(C)cccc4F)n3n2)CC[C@H]1CC(=O)O [Example 10, 2-((3R,4S)-1-(5-(4-chloro-3,5-difluorophenyl)-7-((2-fluoro-6-methylphenyl)(methyl)amino)pyrazolo[1,5-a]pyrimidine-2-carbonyl)-3-methoxypiperidin-4-yl)acetic acid]	9.1 ± 0.5	8.6 ± 0.7	6.7 ± 0.7	5.4 ± 0.7	9.7 ± 0.5	8.6 ± 0.9	7.7 ± 0.8	7.1 ± 1.0	5.9 ± 0.9	9.3 ± 0.6	8.7 ± 0.7	7.8 ± 0.8	6.5 ± 0.8	5.0 ± 0.8	9.3 ± 0.6	
95.9%	C[C@@H](c1ccccc1)N(C)c1cc(-c2cc(F)c(F)c(F)c2)nc2cc(C(=O)N3CCC(CC(=O)O)CC3)nn12 [Reference Example 1, (S)-2-(1-(7-(methyl(1-phenylethyl)amino)-5-(3,4,5-trifluorophenyl)pyrazolo[1,5-a]pyrimidine-2-carbonyl)piperidin-4-yl)acetic acid, reference compound]																37.3%
